Data taken from patent US8541588B2, “Sulfonamide derivatives” (Pfizer Limited, priority 2009, dated 2013).

Target: T1, Nav1.7 (or SCN9A) channel; HEK cells stably transfected with hSCN9A (Homo sapiens, UniProt Q15858)
T1 construct: expressed in transfected cells
Experiment: Nav1.7 block, PatchXpress 7000 automated whole-cell voltage clamp, estimated IC50 (EIC50)
Assay type: cell-based
Conditions: PatchXpress platform; hSCN9A HEK cells held at V1/2 of inactivation; estimated IC50

T1 sequence (Q15858 whole entry): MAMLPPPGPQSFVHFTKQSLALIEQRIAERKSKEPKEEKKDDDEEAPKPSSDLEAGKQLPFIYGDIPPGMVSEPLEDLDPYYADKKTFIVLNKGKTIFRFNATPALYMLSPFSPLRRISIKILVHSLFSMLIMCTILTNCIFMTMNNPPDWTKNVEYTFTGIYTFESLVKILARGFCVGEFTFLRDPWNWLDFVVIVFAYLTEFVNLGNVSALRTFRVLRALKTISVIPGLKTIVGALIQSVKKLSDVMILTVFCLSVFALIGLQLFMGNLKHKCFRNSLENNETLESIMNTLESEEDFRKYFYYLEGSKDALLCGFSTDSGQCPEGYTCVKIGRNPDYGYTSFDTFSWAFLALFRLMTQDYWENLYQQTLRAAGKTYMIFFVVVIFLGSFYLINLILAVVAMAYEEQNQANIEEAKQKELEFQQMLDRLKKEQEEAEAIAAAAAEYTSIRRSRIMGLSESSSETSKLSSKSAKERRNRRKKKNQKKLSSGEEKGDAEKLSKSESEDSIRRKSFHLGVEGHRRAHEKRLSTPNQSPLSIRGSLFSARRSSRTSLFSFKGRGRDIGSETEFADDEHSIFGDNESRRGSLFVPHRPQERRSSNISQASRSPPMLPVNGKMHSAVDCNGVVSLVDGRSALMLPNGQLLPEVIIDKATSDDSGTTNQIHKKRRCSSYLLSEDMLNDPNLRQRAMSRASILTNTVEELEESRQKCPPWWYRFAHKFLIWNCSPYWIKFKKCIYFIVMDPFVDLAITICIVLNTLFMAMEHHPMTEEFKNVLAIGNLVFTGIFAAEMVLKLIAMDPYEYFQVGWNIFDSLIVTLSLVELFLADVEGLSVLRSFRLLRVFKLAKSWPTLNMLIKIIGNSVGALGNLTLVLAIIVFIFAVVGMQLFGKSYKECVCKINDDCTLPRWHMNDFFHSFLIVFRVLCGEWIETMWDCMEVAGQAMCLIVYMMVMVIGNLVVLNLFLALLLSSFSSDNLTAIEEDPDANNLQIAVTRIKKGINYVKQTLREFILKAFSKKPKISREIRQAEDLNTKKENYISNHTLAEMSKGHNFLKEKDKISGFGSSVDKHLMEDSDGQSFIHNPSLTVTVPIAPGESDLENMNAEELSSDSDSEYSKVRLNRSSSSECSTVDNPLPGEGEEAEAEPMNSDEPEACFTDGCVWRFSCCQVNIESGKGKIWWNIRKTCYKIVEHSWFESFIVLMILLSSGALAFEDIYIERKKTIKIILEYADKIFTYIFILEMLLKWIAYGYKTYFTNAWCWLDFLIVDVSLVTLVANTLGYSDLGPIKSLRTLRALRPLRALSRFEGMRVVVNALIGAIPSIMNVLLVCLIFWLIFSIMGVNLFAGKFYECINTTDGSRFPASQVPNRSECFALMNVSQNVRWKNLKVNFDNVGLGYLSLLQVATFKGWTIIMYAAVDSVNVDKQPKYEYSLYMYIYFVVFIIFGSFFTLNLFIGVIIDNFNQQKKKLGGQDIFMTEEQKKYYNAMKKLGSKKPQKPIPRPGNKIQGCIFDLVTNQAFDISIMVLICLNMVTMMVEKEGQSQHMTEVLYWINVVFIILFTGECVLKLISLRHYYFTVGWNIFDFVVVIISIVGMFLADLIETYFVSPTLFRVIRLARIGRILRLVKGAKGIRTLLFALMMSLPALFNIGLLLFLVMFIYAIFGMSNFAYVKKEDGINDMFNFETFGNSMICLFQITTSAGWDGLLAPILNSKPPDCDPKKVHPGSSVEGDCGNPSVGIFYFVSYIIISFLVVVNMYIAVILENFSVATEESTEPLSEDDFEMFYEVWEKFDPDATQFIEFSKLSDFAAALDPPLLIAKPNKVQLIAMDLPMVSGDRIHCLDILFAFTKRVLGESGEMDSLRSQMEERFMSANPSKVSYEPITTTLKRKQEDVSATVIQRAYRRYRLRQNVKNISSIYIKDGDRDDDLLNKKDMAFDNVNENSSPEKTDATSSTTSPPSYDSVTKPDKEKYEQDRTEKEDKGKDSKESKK

Row | SMILES | IC50 [µM]
1 | CCc1nnc(C)n1-c1ccc(Oc2ccc(S(=O)(=O)Nc3nccs3)cc2F)cc1 [Example 132, 4-[4-(3-ethyl-5-methyl-4H-1,2,4-triazol-4-yl)phenoxy]-3-fluoro-N-1,3-thiazol-2-ylbenzenesulfonamide] | 17.3
2 | N#Cc1cc(S(=O)(=O)Nc2ncc(Cl)s2)ccc1Oc1ccccc1Oc1ccccc1 [Example 134, N-(5-chloro-1,3-thiazol-2-yl)-3-cyano-4-(2-phenoxyphenoxy)benzenesulfonamide] | 3.77
3 | N#Cc1cc(S(=O)(=O)Nc2ncc(Cl)s2)ccc1Oc1ccccc1Oc1ccncc1 [Example 135, N-(5-chloro-1,3-thiazol-2-yl)-3-cyano-4-[2-(pyridin-4-yloxy)phenoxy]benzenesulfonamide] | 0.73
4 | N#Cc1cc(S(=O)(=O)Nc2ncc(Cl)s2)ccc1Oc1ccccc1OCc1ccccc1 [Example 136, 4-[2-(benzyloxy)phenoxy]-N-(5-chloro-1,3-thiazol-2-yl)-3-cyanobenzenesulfonamide] | 2.7
5 | Cn1cc(-c2ccc(Cl)cc2)c(Oc2ccc(S(=O)(=O)Nc3ncc(Cl)s3)cc2C#N)n1 [Example 137, 4-{[4-(4-chlorophenyl)-1-methyl-1H-pyrazol-3-yl]oxy}-N-(5-chloro-1,3-thiazol-2-yl)-3-cyanobenzenesulfonamide] | 2.59
6 | Cn1ncc(-c2ccccc2)c1Oc1ccc(S(=O)(=O)Nc2ncc(Cl)s2)cc1C#N [Example 138, N-(5-chloro-1,3-thiazol-2-yl)-3-cyano-4-[(1-methyl-4-phenyl-1H-pyrazol-5-yl)oxy]benzenesulfonamide] | 38.7
7 | Cc1cn(Cc2ccccc2)nc1Oc1ccc(S(=O)(=O)Nc2ncc(Cl)s2)cc1C#N [Example 139, 4-[(1-benzyl-4-methyl-1H-pyrazol-3-yl)oxy]-N-(5-chloro-1,3-thiazol-2-yl)-3-cyanobenzenesulfonamide] | 5
8 | CC(C)c1nn(-c2ccccc2Cl)cc1Oc1ccc(S(=O)(=O)Nc2ncc(Cl)s2)cc1C#N [Example 140, 4-{[1-(2-chlorophenyl)-3-isopropyl-1H-pyrazol-4-yl]oxy}-N-(5-chloro-1,3-thiazol-2-yl)-3-cyanobenzenesulfonamide] | 3.41
9 | N#Cc1cc(S(=O)(=O)Nc2ncc(Cl)s2)ccc1Oc1cc(C(F)(F)F)nn1-c1ccccc1 [Example 141, N-(5-chloro-1,3-thiazol-2-yl)-3-cyano-4-{[1-phenyl-3-(trifluoromethyl)-1H-pyrazol-5-yl]oxy}benzenesulfonamide] | 1.23
10 | N#Cc1cc(S(=O)(=O)Nc2ncc(Cl)s2)ccc1Oc1cc(C(F)(F)F)nn1Cc1ccccc1 [Example 142, 4-{[1-benzyl-3-(trifluoromethyl)-1H-pyrazol-5-yl]oxy}-N-(5-chloro-1,3-thiazol-2-yl)-3-cyanobenzenesulfonamide] | 2.62
11 | Cc1cc(Oc2ccc(S(=O)(=O)Nc3ncc(Cl)s3)cc2C#N)n(C2CCCCC2)n1 [Example 143, N-(5-chloro-1,3-thiazol-2-yl)-3-cyano-4-[(1-cyclohexyl-3-methyl-1H-pyrazol-5-yl)oxy]benzenesulfonamide] | >10
12 | COc1ccc(-n2cc(Oc3ccc(S(=O)(=O)Nc4ncc(Cl)s4)cc3C#N)c(C(C)C)n2)cc1 [Example 145, N-(5-chloro-1,3-thiazol-2-yl)-3-cyano-4-{[3-isopropyl-1-(4-methoxyphenyl)-1H-pyrazol-4-yl]oxy}benzenesulfonamide] | 2
13 | N#Cc1cc(S(=O)(=O)Nc2ncc(Cl)s2)ccc1Oc1ccccc1-c1ccccc1 [Example 146, 4-(biphenyl-2-yloxy)-N-(5-chloro-1,3-thiazol-2-yl)-3-cyanobenzenesulfonamide] | 0.89
14 | O=S(=O)(Nc1ncns1)c1ccc(Oc2ccc(CC3CC3)cc2)c(Cl)c1 [Example 148, 3-chloro-4-[4-(cyclopropylmethyl)phenoxy]-N-1,2,4-thiadiazol-5-ylbenzenesulfonamide] | 2.53
15 | O=S(=O)(Nc1ncns1)c1ccc(Oc2ccc(-c3ccccc3)cc2)c(Cl)c1 [Example 149, 4-(biphenyl-4-yloxy)-3-chloro-N-1,2,4-thiadiazol-5-ylbenzenesulfonamide] | 0.92
16 | O=S(=O)(Nc1ncns1)c1ccc(Oc2ccccc2-c2ccccc2)c(Cl)c1 [Example 150, 4-(biphenyl-2-yloxy)-3-chloro-N-1,2,4-thiadiazol-5-ylbenzenesulfonamide] | 0.19
17 | COc1ccc(-c2cc(F)ccc2Oc2ccc(S(=O)(=O)Nc3nccs3)cc2C#N)cn1 [Example 151, 3-cyano-4-[4-fluoro-2-(6-methoxypyridin-3-yl)phenoxy]-N-1,3-thiazol-2-ylbenzenesulfonamide] | 0.05
18 | N#Cc1cc(S(=O)(=O)Nc2nccs2)ccc1Oc1ccc(F)cc1-c1ccc(F)cc1 [Example 152, 3-cyano-4-[(4′,5-difluorobiphenyl-2-yl)oxy]-N-1,3-thiazol-2-ylbenzenesulfonamide] | 0.08
19 | N#Cc1cc(S(=O)(=O)Nc2nccs2)ccc1Oc1ccc(F)cc1-c1cccc(CCO)c1 [Example 153, 3-cyano-4-{[5-fluoro-3′-(2-hydroxyethyl)biphenyl-2-yl]oxy}-N-1,3-thiazol-2-ylbenzenesulfonamide] | 0.06
20 | COc1cccc(-c2cc(F)ccc2Oc2ccc(S(=O)(=O)Nc3nccs3)cc2C#N)c1 [Example 154, 3-cyano-4-[(5-fluoro-3′-methoxybiphenyl-2-yl)oxy]-N-1,3-thiazol-2-ylbenzenesulfonamide] | 0.13
21 | CC(C)Oc1ccc(-c2cc(Cl)ccc2Oc2ccc(S(=O)(=O)Nc3nccs3)cc2C#N)cc1 [Example 155, 4-[(5-chloro-4′-isopropoxybiphenyl-2-yl)oxy]-3-cyano-N-1,3-thiazol-2-ylbenzenesulfonamide] | 0.85
22 | CC(C)Oc1ccc(-c2cc(F)ccc2Oc2ccc(S(=O)(=O)Nc3nccs3)cc2C#N)cc1 [Example 157, 3-cyano-4-[(5-fluoro-4′-isopropoxybiphenyl-2-yl)oxy]-N-1,3-thiazol-2-ylbenzenesulfonamide] | 0.45
23 | N#Cc1cc(S(=O)(=O)Nc2nccs2)ccc1Oc1ccc(F)cc1-c1ccc(F)c(F)c1 [Example 158, 3-cyano-N-1,3-thiazol-2-yl-4-[(3′,4′,5-trifluorobiphenyl-2-yl)oxy]benzenesulfonamide] | 0.31

Continued, values first:

Row | IC50 [µM] | SMILES
24 | 37.4 | O=S(=O)(Nc1nccs1)c1ccc(Oc2ccc(OCc3ccccc3)c(F)c2)c(F)c1 [Example 120, 4-[4-(benzyloxy)-3-fluorophenoxy]-3-fluoro-N-1,3-thiazol-2-ylbenzenesulfonamide]
25 | 32.3 | O=S(=O)(Nc1nccs1)c1ccc(Oc2ccc(-c3cocn3)cc2)c(F)c1 [Example 121, 3-fluoro-4-[4-(1,3-oxazol-4-yl)phenoxy]-N-1,3-thiazol-2-ylbenzenesulfonamide]
26 | 4.54 | Cc1noc(C)c1Cc1ccc(Oc2ccc(S(=O)(=O)Nc3nccs3)cc2F)cc1 [Example 122, 4-{4-[(3,5-dimethylisoxazol-4-yl)methyl]phenoxy}-3-fluoro-N-1,3-thiazol-2-ylbenzenesulfonamide]
27 | 9.2 | Cc1cc(CN2CCCC2)cc(C)c1Oc1ccc(S(=O)(=O)Nc2nccs2)cc1F [Example 123, 4-[2,6-dimethyl-4-(pyrrolidin-1-ylmethyl)phenoxy]-3-fluoro-N-1,3-thiazol-2-ylbenzenesulfonamide]
28 | 15.1 | O=S(=O)(Nc1nccs1)c1ccc(Oc2ccc(Oc3ccc(F)cc3)cc2)c(F)c1 [Example 124, 3-fluoro-4-[4-(4-fluorophenoxy)phenoxy]-N-1,3-thiazol-2-ylbenzenesulfonamide]
29 | 23 | O=S(=O)(Nc1nccs1)c1ccc(Oc2ccc(CN3CCC3)c(F)c2)c(F)c1 [Example 125, 4-[4-(azetidin-1-ylmethyl)-3-fluorophenoxy]-3-fluoro-N-1,3-thiazol-2-ylbenzenesulfonamide]
30 | 11.5 | O=S(=O)(Nc1nccs1)c1ccc(Oc2cccc(Oc3ccccc3)c2)c(F)c1 [Example 126, 3-fluoro-4-(3-phenoxyphenoxy)-N-1,3-thiazol-2-ylbenzenesulfonamide]
31 | >10 | O=S(=O)(Nc1nccs1)c1ccc(Oc2ccc(Oc3ccccc3)cc2)c(F)c1 [Example 127, 3-fluoro-4-(4-phenoxyphenoxy)-N-1,3-thiazol-2-ylbenzenesulfonamide]
32 | 3.11 | Cc1cc(-c2ccccc2Oc2ccc(S(=O)(=O)Nc3nccs3)cc2F)sn1 [Example 128, 3-fluoro-4-[2-(3-methylisothiazol-5-yl)phenoxy]-N-1,3-thiazol-2-ylbenzenesulfonamide]
33 | 0.7 | Cc1cnsc1-c1ccccc1Oc1ccc(S(=O)(=O)Nc2nccs2)cc1F [Example 129, 3-fluoro-4-[2-(4-methylisothiazol-5-yl)phenoxy]-N-1,3-thiazol-2-ylbenzenesulfonamide]
34 | 9.19 | Cc1nc(-c2ccccc2Oc2ccc(S(=O)(=O)Nc3nccs3)cc2F)cs1 [Example 130, 3-fluoro-4-[2-(2-methyl-1,3-thiazol-4-yl)phenoxy]-N-1,3-thiazol-2-ylbenzenesulfonamide]
35 | 12.1 | O=S(=O)(Nc1nccs1)c1ccc(Oc2ccccc2-c2ccccn2)c(F)c1 [Example 131, 3-fluoro-4-(2-pyridin-2-ylphenoxy)-N-1,3-thiazol-2-ylbenzenesulfonamide]
36 | 11.6 | O=S(=O)(Nc1nccs1)c1ccc(Oc2ccccc2C2CCCCO2)c(F)c1 (stereo not drawn) [Example 133, 3-fluoro-4-[2-(tetrahydro-2H-pyran-2-yl)phenoxy]-N-1,3-thiazol-2-ylbenzenesulfonamide]
37 | 1.39 | N#Cc1cc(S(=O)(=O)Nc2ncc(Cl)s2)ccc1Oc1ccccc1C1CC1 [Example 144, N-(5-chloro-1,3-thiazol-2-yl)-3-cyano-4-(2-cyclopropylphenoxy)benzenesulfonamide]
38 | 1.51 | O=S(=O)(Nc1ncc(Cl)s1)c1ccc(Oc2ccccc2-c2ccccc2)c(F)c1 [Example 147, 4-(Biphenyl-2-yloxy)-N-(5-chloro-thiazol-2-yl)-3-fluoro-benzenesulfonamide]
39 | 0.03 | N#Cc1cc(S(=O)(=O)Nc2nccs2)ccc1Oc1ccc(Cl)cc1-c1ccccc1 [Example 156, 4-[(5-chlorobiphenyl-2-yl)oxy]-3-cyano-N-1,3-thiazol-2-ylbenzenesulfonamide]
